According to patent publication US8329644B2, “Lantibiotic-based compounds having antimicrobial activity” (Novacta Biosystems Limited, priority 2007, dated 2012):
In brackets after ≈: the same amount, converted by molar mass.

Columns and labels:
[1] = system: S. aureus; test: MIC susceptibility testing, S. aureus; type: cell-based, Staphyloccus aureus
Description: Susceptibility testing for all aerobic organisms with the exception of Streptococcus pneumoniae was performed by two-fold serial antibiotic dilutions in Mueller-Hinton Broth supplemented with 50 μg/ml Ca^2+ unless otherwise noted. Susceptibility testing for S. pneumoniae was performed by two-fold serial antibiotic dilutions in Brain-Heart-Infusion Broth supplemented with 50 μg/ml Ca^2+ unless otherwise noted. Actively growing broth cultures were diluted to contain […] by adjusting to an OD600 of 0.2-0.3. They were then diluted a further 1:100 in fresh sterile broth. The assays were performed in duplicate in sterile 96-well microtitre plates in a total volume of 200 μl (160 μl broth, 20 μl antimicrobial agent, 20 μl inoculum) in a concentration range from 64 μg/ml to 0.06 μg/ml. […] Clinical isolates of Clostridium difficile were tested in Wilkins-Chalgren Anaerobe Agar under anaerobic conditions. In all cases, vancomycin was used as a reference antibiotic

[2] = Stability in simulated gastric fluid (SGF); type: in vitro ADME; conditions: 37° C., analytical HPLC
Description: Nisin, mersacidin, compound I and compound III were tested for their susceptibility towards enzymatic digestion in the stomach. Nisin, mersacidin and compound III were tested for their susceptibility towards enzymatic digestion in the intestine. The SGF and SIF were based on the standard USP solutions for simulated gastric and simulated intestinal fluids and their activity confirmed against Bovine Serum Albumin (Hilger et al, Clin. Exp. Immunol. 2001, 123, 387-94). The compounds were incubated in SGF or SIF at 37° C. and their concentrations quantified by analytical HPLC (UV detection at 210 nm). The potential degradation of each compound was also monitored qualitatively by measuring in vitro antibacterial activity against Micrococcus luteus.

Question: Which results are given for `CCC(C)[C@@H]1NC(=O)[C@H](C(C)C)NC(=O)[C@H]2NC(=O)CNC(=O)[C@@H]3CS[C@@H](C)[C@@H](NC(=O)[C@H]4CSC[C@H](N)C(=O)N[C@@H](CO)C(=O)NCC(=O)N[C@@H](Cc5c[nH]c6ccccc56)C(=O)N[C@@H](C(C)C)C(=O)N4)C(=O)N[C@@H](CC(C)C)C(=O)N[C@@H](C(=O)N[C@@H](C(C)CC)C(=O)N[C@@H](CCC(=O)O)C(=O)N3)[C@H](C)SC[C@H](NC1=O)C(=O)N[C@@H](C)C(=O)N[C@H](C(=O)NCCO)C[S+]([O-])[C@H]2C` (some centres unmarked) [Compound III, Actagardine N-[2-ethanolamine]monocarboxamide]?
Answer: MIC ([1]; S. aureus 2, Vancomycin intermediate, Table 3): 32 mg/L (≈ 16.6 µM); MIC ([1]; S. aureus 26, Vancomycin intermediate, Table 3): 32 mg/L (≈ 16.6 µM); MIC ([1]; S. aureus 12232, Methicillin resistant, Table 3): 8 mg/L (≈ 4.14 µM); MIC ([1]; S. aureus G15, Methicillin sensitive, Table 3): >32 mg/L; MIC ([1]; S. aureus G20, Methicillin sensitive, Table 3): 32 mg/L (≈ 16.6 µM); MIC ([1]; S. aureus G22, Methicillin sensitive, Table 3): 32 mg/L (≈ 16.6 µM); MIC ([1]; S. aureus G23, Methicillin sensitive, Table 3): 32 mg/L (≈ 16.6 µM); MIC ([1]; S. aureus G28, Methicillin sensitive, Table 3): 16 mg/L (≈ 8.28 µM); MIC ([1]; S. aureus G30, Methicillin sensitive, Table 3): 32 mg/L (≈ 16.6 µM); MIC ([1]; S. aureus G31, Methicillin sensitive, Table 3): >32 mg/L; MIC ([1]; S. aureus G32, Methicillin sensitive, Table 3): 32 mg/L (≈ 16.6 µM); MIC ([1]; S. aureus G33, Methicillin sensitive, Table 3): 32 mg/L (≈ 16.6 µM); MIC ([1]; S. aureus G35, Methicillin sensitive, Table 3): >32 mg/L; MIC ([1]; S. aureus MI, Vancomycin intermediate, Table 3): 32 mg/L (≈ 16.6 µM); MIC ([1]; S. aureus Mu3, Vancomycin intermediate, Table 3): 32 mg/L (≈ 16.6 µM); MIC ([1]; S. aureus Mu50, Vancomycin intermediate, Table 3): 32 mg/L (≈ 16.6 µM); MIC ([1]; S. aureus NJ, Vancomycin intermediate, Table 3): >32 mg/L; MIC ([1]; S. aureus R33, Table 2): 16 mg/L (≈ 8.28 µM); MIC ([1]; S. aureus R34, Methicillin resistant, Table 3): 8 mg/L (≈ 4.14 µM); MIC ([1]; S. aureus R36, Methicillin resistant, Table 3): 16 mg/L (≈ 8.28 µM); MIC ([1]; S. aureus R39, Methicillin resistant, Table 3): >32 mg/L; MIC ([1]; S. aureus R40, Methicillin resistant, Table 3): 32 mg/L (≈ 16.6 µM); MIC ([1]; S. aureus SH1000, Methicillin sensitive, Table 3): 16 mg/L (≈ 8.28 µM); MIC ([1]; S. aureus SH1000, Table 2): 8 mg/L (≈ 4.14 µM); MIC ([1]; S. aureus V99, Vancomycin intermediate, Table 3): 16 mg/L (≈ 8.28 µM); MIC ([1]; S. aureus W71, Methicillin resistant, Table 3): 32 mg/L (≈ 16.6 µM); MIC ([1]; S. aureus W74, Methicillin resistant, Table 3): 32 mg/L (≈ 16.6 µM); MIC ([1]; S. aureus W96, Methicillin resistant, Table 3): >32 mg/L; MIC ([1]; S. aureus W97, Methicillin resistant, Table 3): >32 mg/L; MIC ([1]; S. aureus W98, Methicillin resistant, Table 3): 32 mg/L (≈ 16.6 µM); MIC ([1]; S. aureus W99, Methicillin resistant, Table 3): 32 mg/L (≈ 16.6 µM); degradation in Simulated Gastric Fluid [2]: did not show appreciable degradation
